Broadly, the AC50 is the concentration giving half of the maximal activity seen. As usually defined, the IC50 is the concentration at which inhibition is half-maximal.

Activity calls are given as the source filed them. Unless noted, no cut-off for these calls is given here.

This note sets out measurements from ChEMBL document CHEMBL1201862, “PubChem BioAssay data set” (2004).

Assay [1] concerns the target Wee1-like protein kinase (Homo sapiens, UniProt P30291). The assay is described as follows: G2/M cell cycle arrest in HeLa, late-stage follow-up, mechanism study for Wee1 degradation inhibitor project, FACS, panel member Wee1 Degradation (AID 2088).
Assay [2] has as its target G2/mitotic-specific cyclin-B1 (Homo sapiens, UniProt P14635). The assay is described as follows: G2/M cell cycle arrest in HeLa, late-stage follow-up, mechanism study for Wee1 degradation inhibitor project, FACS, panel member Cyclin B Degradation (AID 2088).
Assay [3] deals with Cyclin-dependent kinase 5/CDK5 activator 1 (Homo sapiens, UniProt Q00535). The assay is described as follows: CDK5/p35 kinase inhibitors, dose response, biochemical, cherry-picked samples, set 2 (AID 504545).
Chain of Cyclin-dependent kinase 5/CDK5 activator 1 (Q00535 whole entry): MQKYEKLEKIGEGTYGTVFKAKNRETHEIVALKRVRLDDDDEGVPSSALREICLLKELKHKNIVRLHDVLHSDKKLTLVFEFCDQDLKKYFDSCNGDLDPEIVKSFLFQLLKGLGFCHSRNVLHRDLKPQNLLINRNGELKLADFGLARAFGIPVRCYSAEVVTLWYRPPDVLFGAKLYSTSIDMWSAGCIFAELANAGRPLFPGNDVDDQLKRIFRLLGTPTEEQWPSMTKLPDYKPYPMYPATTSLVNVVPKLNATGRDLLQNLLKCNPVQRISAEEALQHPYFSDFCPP
Chain of Cyclin-dependent kinase 5/CDK5 activator 1 (Q15078 whole entry, further chain): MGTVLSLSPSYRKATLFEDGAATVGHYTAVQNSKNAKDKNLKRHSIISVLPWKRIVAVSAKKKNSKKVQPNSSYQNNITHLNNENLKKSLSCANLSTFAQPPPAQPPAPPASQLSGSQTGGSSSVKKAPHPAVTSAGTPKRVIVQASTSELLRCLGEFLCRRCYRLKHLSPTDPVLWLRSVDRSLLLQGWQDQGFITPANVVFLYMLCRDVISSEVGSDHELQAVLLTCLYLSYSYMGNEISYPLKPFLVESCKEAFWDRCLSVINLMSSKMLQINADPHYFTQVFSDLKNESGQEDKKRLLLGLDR
Assay [4] deals with T1, Zinc finger protein mex-5 (Caenorhabditis elegans, UniProt Q9XUB2).
T1 sequence (Q9XUB2 whole entry): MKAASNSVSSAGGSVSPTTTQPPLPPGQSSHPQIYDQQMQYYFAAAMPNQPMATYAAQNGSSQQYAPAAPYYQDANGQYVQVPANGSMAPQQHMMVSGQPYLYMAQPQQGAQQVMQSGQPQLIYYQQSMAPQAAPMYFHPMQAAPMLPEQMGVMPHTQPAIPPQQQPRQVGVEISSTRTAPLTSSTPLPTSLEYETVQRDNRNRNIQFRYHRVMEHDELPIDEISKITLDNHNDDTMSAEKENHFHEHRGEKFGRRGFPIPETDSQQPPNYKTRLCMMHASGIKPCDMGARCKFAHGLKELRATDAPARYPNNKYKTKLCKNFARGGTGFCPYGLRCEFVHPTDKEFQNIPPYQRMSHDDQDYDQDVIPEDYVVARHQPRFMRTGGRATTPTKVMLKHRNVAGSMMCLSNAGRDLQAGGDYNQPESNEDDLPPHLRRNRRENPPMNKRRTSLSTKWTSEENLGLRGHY
The assay is described as follows: MEX-5/TCR-2 RNA interaction inhibitors, dose response, biochemical, C. elegans, fluorescence polarization (AID 1960). On the technique in general: In fluorescence polarisation assays a small probe gives low polarisation when free and higher when bound to something large.

The target in assay [5] is T2, Botulinum neurotoxin type A (Clostridium botulinum (strain Hall / ATCC 3502 / NCTC 13319 / Type A), UniProt P0DPI1). The assay is described as follows: High-throughput multiplex microsphere dose response for inhibitors of toxin protease, specifically Botulinum neurotoxin light chain A protease, compounds from Powder Set 01. It counts as functional, Clostridium botulinum A str. ATCC 3502. The conditions noted are these: read-out: EC50_MICROM.
T2 sequence (P0DPI1 2-448 limits assumed): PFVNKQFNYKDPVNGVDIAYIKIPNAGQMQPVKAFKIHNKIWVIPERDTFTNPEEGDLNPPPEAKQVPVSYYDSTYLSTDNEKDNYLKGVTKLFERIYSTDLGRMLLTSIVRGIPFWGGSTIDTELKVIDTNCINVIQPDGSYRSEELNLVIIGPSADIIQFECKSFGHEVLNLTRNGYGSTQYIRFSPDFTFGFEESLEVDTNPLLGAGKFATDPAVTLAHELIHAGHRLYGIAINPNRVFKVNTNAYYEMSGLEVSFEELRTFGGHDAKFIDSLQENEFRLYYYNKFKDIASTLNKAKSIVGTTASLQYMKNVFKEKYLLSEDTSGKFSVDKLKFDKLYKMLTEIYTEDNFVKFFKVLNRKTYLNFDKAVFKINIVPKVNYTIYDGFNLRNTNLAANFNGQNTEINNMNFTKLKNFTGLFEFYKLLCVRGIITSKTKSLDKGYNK

Assay [6] deals with T2, Botulinum neurotoxin type A. The assay is described as follows: High-throughput multiplex microsphere dose response for inhibitors of toxin protease, specifically Botulinum neurotoxin light chain A protease, compounds from Cherry Pick 01. It is filed as functional. The conditions noted are these: read-out: EC50_MICROM.
The target of assay [7] is T3, RNA-binding protein pos-1 (Caenorhabditis elegans, UniProt G5EF15).
T3 sequence (G5EF15 whole entry): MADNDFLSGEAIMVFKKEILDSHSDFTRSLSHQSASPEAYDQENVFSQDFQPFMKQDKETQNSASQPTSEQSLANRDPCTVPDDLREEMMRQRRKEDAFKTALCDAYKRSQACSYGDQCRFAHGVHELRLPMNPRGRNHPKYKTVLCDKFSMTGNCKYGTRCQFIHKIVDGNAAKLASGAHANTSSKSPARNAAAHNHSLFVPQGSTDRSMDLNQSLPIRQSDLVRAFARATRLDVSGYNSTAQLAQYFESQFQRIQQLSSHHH
The assay is described as follows: inhibitors of POS-1/mex-3 RNA binding, dose response, biochemical, fluorescence polarization (AID 1964).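 Note: purified POS-1 fused to maltose binding protein made in E. coli; potency of compounds blocking POS-1 binding to fluorescent RNA.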

Assay [8] concerns the target Botulinum neurotoxin type F (Clostridium botulinum, UniProt P30996). Description: High-throughput multiplex microsphere dose response for inhibitors of toxin protease, specifically Botulinum neurotoxin light chain F protease, compounds from Powder Set 01. It counts as functional, Clostridium botulinum Bf. The conditions noted are these: read-out: EC50_MICROM.
For assay [9], the target named is Lethal factor (Bacillus anthracis, UniProt P15917). The assay is described as follows: High-throughput multiplex microsphere dose response for inhibitors of toxin protease, specifically Lethal Factor protease, compounds from Powder Set 01. The note with it: read-out: EC50_MICROM. It counts as functional, Bacillus anthracis str. A2012.
Assay [10] deals with ORF 73 (Human herpesvirus 8, UniProt O40947). The assay is described as follows: inhibitors of C-LANA binding to LBS DNA, dose response, biochemical, fluorescence polarization, cherry-picked samples (AID 504725).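 Note: fluorescence polarization of a labeled DNA duplex reporting LANA DNA binding; potency is for inhibitors that block LANA binding to the DNA.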 Further details: species or system Human gammaherpesvirus 8.
Chain of ORF 73 (O40947 whole entry): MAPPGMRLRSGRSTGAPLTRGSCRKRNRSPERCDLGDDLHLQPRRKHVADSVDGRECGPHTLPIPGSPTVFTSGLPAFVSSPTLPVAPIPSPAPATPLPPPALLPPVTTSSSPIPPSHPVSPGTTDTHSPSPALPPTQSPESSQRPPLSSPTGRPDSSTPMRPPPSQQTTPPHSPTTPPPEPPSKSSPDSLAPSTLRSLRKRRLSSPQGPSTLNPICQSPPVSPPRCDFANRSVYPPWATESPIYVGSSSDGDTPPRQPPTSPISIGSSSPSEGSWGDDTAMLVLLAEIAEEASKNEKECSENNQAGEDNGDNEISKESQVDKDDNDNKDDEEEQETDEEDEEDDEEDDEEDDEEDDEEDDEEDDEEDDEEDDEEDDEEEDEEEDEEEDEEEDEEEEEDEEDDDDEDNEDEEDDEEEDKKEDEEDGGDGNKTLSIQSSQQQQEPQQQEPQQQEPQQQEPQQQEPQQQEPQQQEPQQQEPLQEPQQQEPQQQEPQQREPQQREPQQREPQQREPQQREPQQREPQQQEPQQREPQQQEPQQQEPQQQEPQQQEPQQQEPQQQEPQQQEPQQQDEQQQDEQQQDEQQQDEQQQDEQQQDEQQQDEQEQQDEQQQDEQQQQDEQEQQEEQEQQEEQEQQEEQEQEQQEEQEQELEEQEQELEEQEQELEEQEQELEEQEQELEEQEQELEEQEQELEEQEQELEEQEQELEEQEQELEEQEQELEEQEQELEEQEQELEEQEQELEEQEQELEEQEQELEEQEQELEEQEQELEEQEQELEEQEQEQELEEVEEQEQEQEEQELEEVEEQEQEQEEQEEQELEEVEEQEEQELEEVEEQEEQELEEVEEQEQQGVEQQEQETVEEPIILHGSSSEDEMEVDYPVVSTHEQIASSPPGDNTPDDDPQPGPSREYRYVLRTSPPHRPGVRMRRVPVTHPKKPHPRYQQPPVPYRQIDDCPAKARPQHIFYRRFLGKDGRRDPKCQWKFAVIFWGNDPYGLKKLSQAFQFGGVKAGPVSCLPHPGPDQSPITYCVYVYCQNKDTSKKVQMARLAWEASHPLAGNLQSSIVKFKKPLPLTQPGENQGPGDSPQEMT
The target of assay [11] is Ephrin type-A receptor 4 (Mus musculus, UniProt Q03137). The assay is described as follows: inhibitors of EphA4 binding to KYL peptide, primary screen, biochemical, colorimetric, mouse EphA4 (AID 689). It counts as functional.
Chain of Ephrin type-A receptor 4 (Q03137 whole entry): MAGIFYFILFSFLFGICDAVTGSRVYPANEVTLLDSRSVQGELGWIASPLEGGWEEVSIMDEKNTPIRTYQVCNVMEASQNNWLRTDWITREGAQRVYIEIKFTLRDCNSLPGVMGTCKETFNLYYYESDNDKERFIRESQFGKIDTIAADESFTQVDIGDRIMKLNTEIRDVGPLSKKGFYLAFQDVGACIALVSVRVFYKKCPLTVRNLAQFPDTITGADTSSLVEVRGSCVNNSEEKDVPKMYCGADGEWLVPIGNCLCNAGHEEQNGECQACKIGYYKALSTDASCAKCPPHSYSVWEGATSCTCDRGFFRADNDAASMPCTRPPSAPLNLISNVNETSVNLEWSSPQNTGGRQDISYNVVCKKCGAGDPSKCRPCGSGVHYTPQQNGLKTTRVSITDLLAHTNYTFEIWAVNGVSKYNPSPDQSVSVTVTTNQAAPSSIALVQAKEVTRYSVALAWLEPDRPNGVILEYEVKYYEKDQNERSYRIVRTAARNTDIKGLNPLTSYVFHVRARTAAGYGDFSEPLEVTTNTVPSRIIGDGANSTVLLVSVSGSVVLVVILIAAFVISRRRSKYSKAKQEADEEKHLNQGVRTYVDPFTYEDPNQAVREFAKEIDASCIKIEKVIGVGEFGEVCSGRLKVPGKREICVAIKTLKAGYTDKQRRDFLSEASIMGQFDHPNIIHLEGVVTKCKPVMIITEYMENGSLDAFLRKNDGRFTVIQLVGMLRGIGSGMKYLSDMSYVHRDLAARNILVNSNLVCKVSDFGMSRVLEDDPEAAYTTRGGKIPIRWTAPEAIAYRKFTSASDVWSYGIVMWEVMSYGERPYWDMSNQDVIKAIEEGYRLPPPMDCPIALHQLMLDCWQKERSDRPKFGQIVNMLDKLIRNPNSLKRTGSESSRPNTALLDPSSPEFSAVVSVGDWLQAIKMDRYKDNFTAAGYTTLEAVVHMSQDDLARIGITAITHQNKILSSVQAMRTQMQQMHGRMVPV

Chain of Wee1-like protein kinase (P30291 whole entry): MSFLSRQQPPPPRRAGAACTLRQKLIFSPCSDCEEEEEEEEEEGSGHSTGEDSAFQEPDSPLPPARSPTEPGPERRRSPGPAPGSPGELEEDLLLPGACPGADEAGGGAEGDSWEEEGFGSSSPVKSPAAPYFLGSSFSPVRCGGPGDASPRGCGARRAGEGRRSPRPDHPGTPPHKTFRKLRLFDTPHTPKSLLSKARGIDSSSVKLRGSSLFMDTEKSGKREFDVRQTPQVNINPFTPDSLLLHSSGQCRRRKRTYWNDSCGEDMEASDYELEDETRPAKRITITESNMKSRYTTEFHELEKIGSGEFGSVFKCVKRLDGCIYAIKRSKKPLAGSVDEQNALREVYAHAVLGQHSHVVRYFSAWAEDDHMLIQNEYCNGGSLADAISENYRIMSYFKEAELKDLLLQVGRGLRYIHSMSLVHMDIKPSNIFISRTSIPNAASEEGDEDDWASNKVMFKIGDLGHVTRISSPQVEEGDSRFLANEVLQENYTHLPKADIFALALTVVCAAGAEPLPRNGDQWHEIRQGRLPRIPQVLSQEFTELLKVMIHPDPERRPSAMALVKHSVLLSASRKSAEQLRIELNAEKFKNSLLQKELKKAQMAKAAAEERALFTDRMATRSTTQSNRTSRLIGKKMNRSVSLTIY
Chain of G2/mitotic-specific cyclin-B1 (P14635 whole entry): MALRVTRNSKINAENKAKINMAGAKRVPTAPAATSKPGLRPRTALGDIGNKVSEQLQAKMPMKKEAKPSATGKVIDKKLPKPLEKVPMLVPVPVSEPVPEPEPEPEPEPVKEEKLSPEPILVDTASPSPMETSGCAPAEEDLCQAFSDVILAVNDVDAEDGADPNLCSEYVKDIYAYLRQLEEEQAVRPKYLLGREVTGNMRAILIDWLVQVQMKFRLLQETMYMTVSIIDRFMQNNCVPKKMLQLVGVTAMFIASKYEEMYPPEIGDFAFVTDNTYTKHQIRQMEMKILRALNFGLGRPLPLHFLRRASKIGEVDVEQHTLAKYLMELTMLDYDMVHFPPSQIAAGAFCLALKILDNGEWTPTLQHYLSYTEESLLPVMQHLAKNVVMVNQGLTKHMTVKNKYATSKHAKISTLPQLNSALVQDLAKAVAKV
Chain of Botulinum neurotoxin type F (P30996 1-436 limits assumed): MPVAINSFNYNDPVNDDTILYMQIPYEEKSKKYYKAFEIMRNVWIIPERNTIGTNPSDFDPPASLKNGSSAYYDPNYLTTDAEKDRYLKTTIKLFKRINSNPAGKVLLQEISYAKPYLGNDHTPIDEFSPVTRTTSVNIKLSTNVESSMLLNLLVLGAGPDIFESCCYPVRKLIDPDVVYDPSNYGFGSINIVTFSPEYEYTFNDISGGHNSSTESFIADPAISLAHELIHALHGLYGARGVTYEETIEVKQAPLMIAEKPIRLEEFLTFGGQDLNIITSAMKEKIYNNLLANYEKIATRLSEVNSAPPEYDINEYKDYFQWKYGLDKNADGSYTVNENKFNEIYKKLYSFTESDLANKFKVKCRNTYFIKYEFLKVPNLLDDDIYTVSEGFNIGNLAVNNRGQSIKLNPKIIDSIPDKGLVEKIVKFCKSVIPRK

As to `Cc1ccc(Nc2cc(C)nn2-c2nc(C)cc(O)n2)cc1`, the EC50 in [1] and in assay [2] was > 55.7 µM (inactive) throughout.

For `COc1ccc(C(=O)c2sc(NC(C)C)nc2N)cc1OC`, the AC50 in [3] is 90.5 µM (active).

For the compound `c1ccc(-c2cn3nc(-c4ccccc4)c(-c4ccccc4)nc3n2)cc1`, the EC50 was 3.84 µM (active) in assay [4]; 0.6 µM (active) in [5]; 5.8 µM (active) in assay [6]; 2.82 µM (active) in assay [7]; 5.3 µM (active) in assay [8]; 1.6 µM (active) in [9]. Moreover, in assay [10], the AC50 is 47.3 µM (active). Moreover, the IC50 in assay [11] is 1.2 µM (active).
